Reference: paper PMC8343220, “The selectivity of α‐adrenoceptor agonists for the human α1A, α1B, and α1D‐adrenoceptors” (Pharmacology Research & Perspectives, 2021)
Like-named read-outs stand apart in the source and are kept apart here.

Legend:
[1] = system: parental CHO cell line without any transfected receptors; assay: Intracellular calcium mobilization, parent CHO cells without transfected receptors; assay type: cell-based, Chinese hamster
[2] = system: parental CHO cell line without any transfected receptors; assay: ERK1/2‐phosphorylation, parent CHO cells without transfected receptors; assay type: cell-based, Chinese hamster
[3] = system: parental CHO cell line without any transfected receptors; assay: ^3H‐cAMP accumulation, parent CHO cells without transfected receptors; assay type: cell-based, Chinese hamster
[4] = system: parental CHO cell line without any transfected receptors; assay: Forskolin‐stimulated cAMP accumulation, parent CHO cells without transfected receptors; assay type: cell-based, Chinese hamster
human α1A‐adrenoceptor [5] = biological target: T1, human α1A‐adrenoceptor (Homo sapiens, UniProt P35348); assay: ^3H‐prazosin whole‐cell radioligand binding, CHO‐α1A cells
T1 construct: expressed in transfected cells; host or cells: CHO-K1
T1 sequence (P35348 1-466): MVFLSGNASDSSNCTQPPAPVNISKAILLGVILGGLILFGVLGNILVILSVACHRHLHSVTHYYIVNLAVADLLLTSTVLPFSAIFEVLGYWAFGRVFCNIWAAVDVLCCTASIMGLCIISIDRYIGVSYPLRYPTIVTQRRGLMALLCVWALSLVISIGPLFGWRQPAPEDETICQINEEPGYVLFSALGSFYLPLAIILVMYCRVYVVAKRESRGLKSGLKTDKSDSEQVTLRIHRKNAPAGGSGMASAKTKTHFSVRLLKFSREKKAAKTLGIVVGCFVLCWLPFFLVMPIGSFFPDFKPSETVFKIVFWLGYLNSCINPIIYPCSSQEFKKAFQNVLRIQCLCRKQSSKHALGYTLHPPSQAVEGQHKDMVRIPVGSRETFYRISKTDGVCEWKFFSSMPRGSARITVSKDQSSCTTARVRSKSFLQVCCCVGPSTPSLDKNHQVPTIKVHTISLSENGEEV

human α1B‐adrenoceptor [6] = biological target: T2, human α1B‐adrenoceptor (Homo sapiens, UniProt P35368); assay: ^3H‐prazosin whole‐cell radioligand binding, CHO‐α1B cells
T2 construct: expressed in transfected cells; host or cells: CHO-K1
T2 sequence (P35368 1-520): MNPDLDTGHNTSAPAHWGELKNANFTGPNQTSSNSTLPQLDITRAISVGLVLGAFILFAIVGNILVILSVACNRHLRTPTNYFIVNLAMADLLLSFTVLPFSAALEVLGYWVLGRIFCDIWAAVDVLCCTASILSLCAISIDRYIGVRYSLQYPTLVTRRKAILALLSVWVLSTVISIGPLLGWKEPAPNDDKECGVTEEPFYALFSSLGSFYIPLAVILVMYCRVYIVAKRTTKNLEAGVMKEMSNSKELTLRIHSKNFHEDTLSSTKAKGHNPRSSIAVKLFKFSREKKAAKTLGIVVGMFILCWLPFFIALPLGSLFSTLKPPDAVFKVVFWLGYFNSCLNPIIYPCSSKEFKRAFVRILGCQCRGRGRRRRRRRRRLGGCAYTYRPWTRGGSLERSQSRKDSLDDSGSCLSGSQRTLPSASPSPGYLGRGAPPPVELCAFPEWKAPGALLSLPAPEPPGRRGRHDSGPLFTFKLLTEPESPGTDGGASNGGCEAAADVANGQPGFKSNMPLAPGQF

[7] = biological target: T3, human α1D‐adrenoceptor (full length) (Homo sapiens, UniProt P25100); assay: ^3H‐prazosin whole‐cell radioligand binding, CHO‐α1D cells
T3 construct: human α1D‐adrenoceptor (full length) were used; expressed in transfected cells; host or cells: CHO-K1
T3 sequence (P25100 1-572): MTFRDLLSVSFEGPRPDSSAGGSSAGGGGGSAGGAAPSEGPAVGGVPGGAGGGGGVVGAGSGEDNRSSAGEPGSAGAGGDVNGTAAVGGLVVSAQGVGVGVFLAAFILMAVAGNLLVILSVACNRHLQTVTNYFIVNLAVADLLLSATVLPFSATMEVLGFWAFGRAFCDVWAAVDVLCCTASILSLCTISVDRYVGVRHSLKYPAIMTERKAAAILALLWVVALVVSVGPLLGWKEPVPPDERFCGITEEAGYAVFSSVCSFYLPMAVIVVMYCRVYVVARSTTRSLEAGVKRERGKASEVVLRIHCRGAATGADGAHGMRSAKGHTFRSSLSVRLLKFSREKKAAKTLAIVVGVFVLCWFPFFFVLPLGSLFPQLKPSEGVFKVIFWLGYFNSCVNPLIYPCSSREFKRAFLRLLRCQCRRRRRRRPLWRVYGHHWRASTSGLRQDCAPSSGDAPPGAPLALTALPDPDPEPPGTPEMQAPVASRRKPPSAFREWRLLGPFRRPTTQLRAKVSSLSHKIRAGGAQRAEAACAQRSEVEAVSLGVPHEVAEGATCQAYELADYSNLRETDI

human α1A‐adrenoceptor [8] = biological target: T1, human α1A‐adrenoceptor; assay: Intracellular free calcium mobilization, CHO‐α1A cells; assay type: cell-based
human α1B‐adrenoceptor [9] = biological target: T2, human α1B‐adrenoceptor; assay: Intracellular free calcium mobilization, CHO‐α1B cells; assay type: cell-based
human α1A‐adrenoceptor [10] = biological target: T1, human α1A‐adrenoceptor; assay: ERK1/2‐phosphorylation (Surefire Alphascreen), CHO‐α1A cells; assay type: cell-based
human α1B‐adrenoceptor [11] = biological target: T2, human α1B‐adrenoceptor; assay: ERK1/2‐phosphorylation (Surefire Alphascreen), CHO‐α1B cells; assay type: cell-based
[12] = biological target: T3, human α1D‐adrenoceptor (full length); assay: ERK1/2‐phosphorylation (Surefire Alphascreen), CHO‐α1D cells; assay type: cell-based
human α1A‐adrenoceptor [13] = biological target: T1, human α1A‐adrenoceptor; assay: ^3H‐cAMP accumulation, CHO‐α1A cells; assay type: cell-based; settings: for cAMP accumulation % forskolin: % of 10 µM forskolin response
[14] = biological target: T3, human α1D‐adrenoceptor (full length); assay: ^3H‐cAMP accumulation, CHO‐α1D cells; assay type: cell-based; settings: cAMP accumulation without forskolin
human α1A‐adrenoceptor [15] = biological target: T1, human α1A‐adrenoceptor; assay: ^3H‐cAMP accumulation in the presence of 10 μM forskolin, CHO‐α1A cells; assay type: cell-based; settings: for cAMP accumulation (in presence of forskolin) Fold increase: fold increase of the forskolin response
[16] = biological target: T3, human α1D‐adrenoceptor (full length); assay: ^3H‐cAMP accumulation in the presence of 10 μM forskolin, CHO‐α1D cells; assay type: cell-based; settings: CHO‐α1D cells; in presence of forskolin; log values given negative
[17] = biological target: T3, human α1D‐adrenoceptor (full length); assay: Intracellular free calcium mobilization, CHO‐α1D cells; assay type: cell-based
[18] = Intracellular calcium release Log EC50
[19] = ERK1/2‐phosphorylation Log EC50

CC(N)C(O)c1ccc(O)c(O)c1 (stereo not drawn) [α-methylnorepinephrine]
Intracellular calcium release % ionomycin [1]: No response | ERK1/2-phosphorylation % PDBu [2]: No response | ERK1/2-phosphorylation Log EC50 [2]: No response | cAMP accumulation % forskolin [3]: No response | cAMP accumulation (in presence of forskolin) % forskolin-stim cAMP [4]: No response | cAMP accumulation (in presence of forskolin) Log EC50 [4]: No response

CC(Cc1ccc(O)cc1)NCC(O)c1cc(O)cc(O)c1 (stereo not drawn) [Fenoterol]
Kd (human α1A‐adrenoceptor [5]; Log KD α1A, ^3H‐prazosin whole cell binding): 5.13 µM | Kd (human α1B‐adrenoceptor [6]; Log KD α1B, ^3H‐prazosin whole cell binding): 123 µM | Kd (human α1B‐adrenoceptor [6]; Log KD, ^3H‐prazosin binding): 123 µM | Kd ([7]; 3H‐prazosin binding Log KD): 44.7 µM | Kd ([7]; Log KD α1D, ^3H‐prazosin whole cell binding): 44.7 µM | EC50 (human α1A‐adrenoceptor [8]; [18]): 0.309 µM | EC50 (human α1B‐adrenoceptor [9]; [18]): 0.537 µM | Intracellular calcium release % ionomycin [1]: No response | EC50 (human α1A‐adrenoceptor [10]; [19]): 2.04 µM | EC50 (human α1B‐adrenoceptor [11]; [19]): 2.75 µM | EC50 [12]: 3.98 µM | ERK1/2-phosphorylation % PDBu [2]: No response | cAMP accumulation Log EC50 (human α1A‐adrenoceptor [13]; CHO‐α1A cells, 5 h): No response | cAMP Log EC50 [14]: No response | cAMP accumulation % forskolin [3]: No response | cAMP accumulation (in presence of forskolin) Log EC50 (human α1A‐adrenoceptor [15]; CHO‐α1A cells, 10 μM forskolin): No response | cAMP (in presence of forskolin) Log EC50 [16]: No response | cAMP accumulation (in presence of forskolin) % forskolin-stim cAMP [4]: No response

COc1ccccc1N1CCN(CC2CN3C(=O)N(C)c4ccccc4C3=N2)CC1 (stereo not drawn) [2-MPMDQ]
Intracellular calcium release % ionomycin [1]: No response | ERK1/2-phosphorylation % PDBu [2]: No response | cAMP accumulation % forskolin [3]: No response | cAMP accumulation (in presence of forskolin) % forskolin-stim cAMP [4]: No response | cAMP accumulation (in presence of forskolin) Log EC50 [4]: No response

CN[C@@H](C)[C@H](O)c1ccccc1 [Ephedrine]
Affinity selectivity ratio α1A vs α1B (human α1A‐adrenoceptor [5]): >11.7 fold | Affinity selectivity ratio α1A vs α1D (human α1A‐adrenoceptor [5]): 3.2 fold | Kd (human α1A‐adrenoceptor [5]): 85.1 µM | IC50 (human α1B‐adrenoceptor [6]): > 1000 µM | Affinity selectivity ratio α1B vs α1D [7]: >3.7 fold | Kd [7]: 269 µM | EC50 (human α1A‐adrenoceptor [8]): 3.16 µM | Intracellular calcium release % ionomycin (human α1A‐adrenoceptor [8]): 43.1 ± 1.6% | Log efficacy ratio KD /EC50 (human α1A‐adrenoceptor [8]): 1.43 | Intracellular calcium release % Ionomycin at 100 µM [17]: 2.6 ± 1.3% | Emax ([1]; Cricetulus griseus, CHO, read-out: Intracellular calcium release % ionomycin): 5.3 ± 1.6% | EC50 (human α1A‐adrenoceptor [10]): 7.59 µM | ERK1/2‐phosphorylation % PDBu (human α1A‐adrenoceptor [10]): 72.7 ± 6.5% | ERK1/2‐phosphorylation % PDBu at 100 µM [12]: 3.3 ± 2.1% | ERK1/2-phosphorylation % PDBu [2]: No response | ERK1/2-phosphorylation Log EC50 [2]: No response | EC50 (human α1A‐adrenoceptor [13]): 117 µM | cAMP accumulation % forskolin (human α1A‐adrenoceptor [13]; CHO‐α1A cells): 7.8 ± 1.3% | cAMP accumulation % forskolin [3]: No response | EC50 (human α1A‐adrenoceptor [15]): 70.8 µM | cAMP accumulation (in presence of forskolin) Fold increase (human α1A‐adrenoceptor [15]; CHO‐α1A cells): 1.70 ± 0.10 fold | cAMP accumulation (in presence of forskolin) % forskolin-stim cAMP [4]: No response | cAMP accumulation (in presence of forskolin) Log EC50 [4]: No response

CCC1(c2cnc[nH]2)Cc2ccccc2C1 [Atipamezole]
Intracellular calcium release % ionomycin (human α1A‐adrenoceptor [8]): 44.5 ± 2.6% | Log efficacy ratio KD /EC50 (human α1A‐adrenoceptor [8]): 0.62 | EC50 (human α1A‐adrenoceptor [8]; CHO‐α1A cells, given as log EC50 (negative), read-out: Intracellular calcium release Log EC50 (converted)): 0.245 µM | Intracellular calcium release % Ionomycin at 100 µM (human α1B‐adrenoceptor [9]): 18.1 ± 4.8% | Intracellular calcium release % ionomycin [17]: No response | Intracellular calcium release Log EC50 ([17]; CHO‐α1D cells, log values given negative): No response | Intracellular calcium release % ionomycin [1]: No response | ERK1/2‐phosphorylation % PDBu (human α1A‐adrenoceptor [10]): 87.1 ± 5.0% | EC50 (human α1A‐adrenoceptor [10]; CHO‐α1A cells, 2–4 min, ^a bi‐phasic: initial stimulatory part, ^b also active in parent CHO cells, read-out: ERK1/2‐phosphorylation Log EC50 (converted)): 0.1 µM | ERK1/2‐phosphorylation % PDBu (human α1B‐adrenoceptor [11]): No response | ERK1/2‐phosphorylation Log EC50 (human α1B‐adrenoceptor [11]; CHO‐α1B cells, for bi‐phasic responses the initial stimulatory part): No response | ERK1/2‐phosphorylation % PDBu at 10 µM [12]: 5.3 ± 4.6% | ERK1/2-phosphorylation % PDBu at 10μM [2]: 3.1 ± 1.9% | EC50 (human α1A‐adrenoceptor [13]; CHO‐α1A cells, 5 h, read-out: cAMP accumulation Log EC50 (converted)): 1.17 µM | cAMP accumulation % forskolin (human α1A‐adrenoceptor [13]; CHO‐α1A cells): 14.5 ± 2.6% | cAMP accumulation % forskolin [3]: No response | EC50 (human α1A‐adrenoceptor [15]; CHO‐α1A cells, 10 μM forskolin, read-out: cAMP accumulation (in presence of forskolin) Log EC50 (converted)): 0.479 µM | cAMP accumulation (in presence of forskolin) Fold increase (human α1A‐adrenoceptor [15]; CHO‐α1A cells): 2.00 ± 0.10 fold | cAMP accumulation (in presence of forskolin) % forskolin-stim cAMP [4]: No response | cAMP accumulation (in presence of forskolin) Log EC50 [4]: No response
